Laboratory results reported in patent publication US20010014737A1, “Vitronectin receptor antagonist” (priority 1997, published 2001).

Biological target: T1, ανβ3 (the vitronectin receptor) (Homo sapiens, UniProt P05106+P06756)
T1 construct: Human placenta or human platelet ανβ3 (0.1-0.3 mg/mL) in buffer T; from tissue; host or cells: human placenta or human platelets
Assay: Solid-Phase [3H]-SK&F-107260 Binding to ανβ3 (inhibition of vitronectin binding)
Settings: read-out: inhibits [3H]-SK&F-107260 binding to ανβ3 at a concentration
Protocol: Inhibition of vitronectin binding
Solid-Phase [^3H]-SK&F-107260 Binding to ανβ3: Human placenta or human platelet ανβ3 (0.1-0.3 mg/mL) in buffer T (containing 2 mM CaCl2 and 1% octylglucoside) was diluted with buffer T containing 1 mM CaCl2, 1 mM MnCl2, 1 mM MgCl2 (buffer A) and 0.05% NaN3, and then immediately added to 96-well ELISA plates (Corning, New York, N.Y.) at 0.1 mL per well. 0.1 - 0.2 μg of ανβ3 was added per well. The plates were incubated overnight at 4° C. At the time of the experiment, the wells were washed once with buffer A and were incubated with 0.1 mL of 3.5% bovine serum albumin in the same buffer for 1 hr at room temperature. Following incubation the wells were aspirated completely and washed twice with 0.2 mL buffer A. […]
The plates were incubated for 1 hr at room temperature. […] The receptors were solubilized with 0.1 mL of 1% SDS and the bound f^3H]-SK&F-107260 was determined by liquid scintillation counting with the addition of 3 mL Ready Safe in a Beckman LS Liquid Scintillation Counter, with 40% efficiency. Nonspecific binding of [^3H]-SK&F-107260 was determined in the presence of 2 μM SK&F-107260 and was consistently less than 1% of total radioligand input. […]

T1 sequence (P06756 31-889 limits assumed): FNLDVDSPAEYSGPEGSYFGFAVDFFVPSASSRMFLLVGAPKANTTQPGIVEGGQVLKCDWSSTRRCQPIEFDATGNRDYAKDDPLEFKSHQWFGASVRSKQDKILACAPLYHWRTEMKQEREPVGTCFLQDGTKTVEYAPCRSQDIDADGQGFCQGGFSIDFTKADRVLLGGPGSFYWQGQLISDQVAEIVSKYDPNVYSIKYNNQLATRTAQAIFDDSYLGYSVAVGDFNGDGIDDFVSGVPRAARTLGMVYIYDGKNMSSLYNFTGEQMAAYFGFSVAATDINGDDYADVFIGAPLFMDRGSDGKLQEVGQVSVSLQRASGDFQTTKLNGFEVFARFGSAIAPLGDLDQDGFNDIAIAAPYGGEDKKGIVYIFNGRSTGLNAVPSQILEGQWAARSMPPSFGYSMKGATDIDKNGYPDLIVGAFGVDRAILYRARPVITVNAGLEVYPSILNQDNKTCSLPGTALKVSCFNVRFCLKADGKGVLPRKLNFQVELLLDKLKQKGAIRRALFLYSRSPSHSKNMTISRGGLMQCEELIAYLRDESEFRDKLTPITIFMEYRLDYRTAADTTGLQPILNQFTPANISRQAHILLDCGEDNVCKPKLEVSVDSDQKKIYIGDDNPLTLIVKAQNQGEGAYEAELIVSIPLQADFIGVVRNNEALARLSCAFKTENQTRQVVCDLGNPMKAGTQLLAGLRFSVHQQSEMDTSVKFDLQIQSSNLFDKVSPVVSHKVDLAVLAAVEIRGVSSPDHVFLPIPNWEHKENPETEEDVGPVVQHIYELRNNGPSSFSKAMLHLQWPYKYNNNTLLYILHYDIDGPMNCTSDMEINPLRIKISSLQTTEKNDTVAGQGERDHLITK
T1 sequence (P06756 891-1048 partner limits assumed): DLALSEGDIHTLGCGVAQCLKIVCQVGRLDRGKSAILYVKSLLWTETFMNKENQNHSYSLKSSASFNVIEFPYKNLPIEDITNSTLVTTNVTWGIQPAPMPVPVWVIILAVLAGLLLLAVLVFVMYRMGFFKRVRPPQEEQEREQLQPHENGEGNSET
T1 sequence (P05106 27-788): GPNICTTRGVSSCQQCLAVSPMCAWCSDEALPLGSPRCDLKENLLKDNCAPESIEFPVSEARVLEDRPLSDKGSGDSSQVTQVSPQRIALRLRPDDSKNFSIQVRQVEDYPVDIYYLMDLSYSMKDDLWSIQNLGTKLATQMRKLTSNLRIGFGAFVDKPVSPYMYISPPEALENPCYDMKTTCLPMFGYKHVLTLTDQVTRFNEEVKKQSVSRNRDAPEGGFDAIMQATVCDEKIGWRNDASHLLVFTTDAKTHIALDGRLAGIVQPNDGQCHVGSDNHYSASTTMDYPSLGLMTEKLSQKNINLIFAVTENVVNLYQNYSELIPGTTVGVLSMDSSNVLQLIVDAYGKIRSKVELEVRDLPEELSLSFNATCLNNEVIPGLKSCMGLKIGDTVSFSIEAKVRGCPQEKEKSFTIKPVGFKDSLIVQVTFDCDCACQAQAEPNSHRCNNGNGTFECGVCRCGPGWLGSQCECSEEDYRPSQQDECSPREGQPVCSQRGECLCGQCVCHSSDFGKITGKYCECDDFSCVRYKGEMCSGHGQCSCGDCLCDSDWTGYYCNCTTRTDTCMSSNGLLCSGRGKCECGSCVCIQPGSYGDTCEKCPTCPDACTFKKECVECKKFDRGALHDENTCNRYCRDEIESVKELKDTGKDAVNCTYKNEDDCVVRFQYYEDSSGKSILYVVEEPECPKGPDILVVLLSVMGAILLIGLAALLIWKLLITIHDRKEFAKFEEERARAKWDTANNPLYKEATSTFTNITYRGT

IC50: ~3 nM
Structure (SMILES): Cc1ccnc(NCCCOc2ccc3c(c2)CN(Cc2ccc(C(F)(F)F)cc2)C(=O)[C@H](CC(=O)O)C3)c1 [Example 1, (S)-8-[3-(4-methylpyridin-2-ylamino)-1-propyloxy]-3-oxo-2-[4-(trifluoromethyl)benzyl]-2,3,4,5-tetrahydro-1 H-2-benzazepine-4-acetic acid]
